Columns and labels:
Kmt2d+/βGeo mice = experiment: Morris water maze (hippocampal memory) in the Kmt2d+/βGeo mouse model of Kabuki syndrome; assay type: in vivo; details: 10 mg/kg/day
Description: Kmt2d^+/βGeo mice, also named Mll2Gt^(RRt024) Byg, were acquired from Bay Genomics (University of California). All experimental mice were on a mixed C57BL/6J and 129/SvEv background. Expected Mendelian ratios were observed when heterozygous animals were bred to wild-type. In heterozygous crosses, however, there was uniform embryonic lethality of homozygotes by ED 12, the earliest developmental stage assayed. For treatment with AR-42, mice were orally gavaged daily with drug (Selleck Chemicals, Houston, Tex.) solubilized in vehicle (0.5% methylcellulose, 0.1% Tween-80, water) or with vehicle alone. Drug delivery information was kindly provided by Drs. Chen and Kulp from Ohio State University (Huang et al. (2011) Mol. Pharmacol. 79:197-20619). Drug was administered for 14 days and mice were sacrificed on day 15. Morris water maze testing was initiated at day 7 and a dose of 10 mg/kg/day was used for these studies. For quantification of DCX positive cells, doses of 0, 5, 10 and 25 mg/kg/day were used. Genotyping was performed using primers B-GeoF-([…]; SEQ ID NO: 1) and B-GeoR-([…]; SEQ ID NO: 2) that are specific for the targeted allele and TcrdF-([…]; SEQ ID NO: 3) and TcrdR-([…]; SEQ ID NO: 4) that control for sufficient DNA concentration. Real-time PCR using the same primers allows discrimination between the heterozygous and homozygous state for the targeted allele. Maxillary protrusion was evaluated by ten investigators blinded to genotype and they were asked to rate maxillary protrusion on radiographs as either large (2) or small (1). […] All experiments were performed using mouse protocols approved by the Animal Care and Use Committee of Johns Hopkins University School of Medicine. The mouse protocols used for this study are in accordance with the guidelines used by the NIH for mouse care and handling.
Mice were placed in a 1.1 meter diameter tank filled with room temperature water dyed with non-toxic white paint. For analysis purposes, the tank was divided into four quadrants, with one quadrant containing a small platform submerged 1.5 cm beneath the water. On each day of training, mice were placed in the tank in a random quadrant facing away from the center and were allowed to swim until they found the platform and were left there for 30 seconds. […] Each mouse was given 4 trials per day (for 5 days) with no inter-trial interval and subsequently returned to its home cage. Latency to reach the platform was measured during each trial. The day after the final day of training, the platform was removed for a probe trial where mice were placed in the tank for 90 s. Average number of crossings of the platform's previous location was recorded. Visible/flagged platform training was also performed for 3 days either before the hidden platform or after the probe trial, where a visible flag was placed on the submerged platform, and the time for each mouse to reach the platform was measured for each 60 second trial, four of which were run in the same way as the hidden platform training. For all training and probe testing, data was recorded both manually and electronically with ANY-maze software (San Diego Instruments, San Diego, Calif.) when applicable. All data were collected and analyzed by an individual blinded to genotype and treatment group. Differences in the number of platform crossings during the probe trial were compared between groups with a Student's t-test with significance value set at P<0.05.

[1] = test system: H3K4me3 in the dentate gyrus GCL; experiment: Immunofluorescence of H3K4me3 in the dentate gyrus GCL after oral AR-42; assay type: in vivo, mouse; details: 25 mg/kg/day oral, two weeks, from 20 weeks of age; vs untreated; FIG. 24A, 24B
Description: Kmt2d^+/βGeo mice, also named Mll2Gt^(RRt024) Byg, were acquired from Bay Genomics (University of California). All experimental mice were on a mixed C57BL/6J and 129/SvEv background. Expected Mendelian ratios were observed when heterozygous animals were bred to wild-type. In heterozygous crosses, however, there was uniform embryonic lethality of homozygotes by ED 12, the earliest developmental stage assayed. For treatment with AR-42, mice were orally gavaged daily with drug (Selleck Chemicals, Houston, Tex.) solubilized in vehicle (0.5% methylcellulose, 0.1% Tween-80, water) or with vehicle alone. Drug delivery information was kindly provided by Drs. […] For quantification of DCX positive cells, doses of 0, 5, 10 and 25 mg/kg/day were used. […] Maxillary protrusion was evaluated by ten investigators blinded to genotype and they were asked to rate maxillary protrusion on radiographs as either large (2) or small (1). […]
Z-stack images of slides were taken at either 10× using Zeiss Axiovert 200 with 510-Meta confocal module (Carl Zeiss, Jena, GER) or 25× using Zeiss AxioExaminer with 710NLO-Meta multiphoton (Carl Zeiss, Jena, GER). From 10× pictures, the GCL was highlighted and fluorescent intensities for both DAPI and H3K4me3 were measured at the midpoint of the entire z-stack (Zen software, Carl Zeiss, Jena, GER) with the value for Kmt2d^+/+ animals set equal to one. […]

CC(C)[C@H](C(=O)Nc1ccc(C(=O)NO)cc1)c1ccccc1 [AR-42, (S)—N-hydroxy-4-(3-methyl-2-phenylbutanamido)benzamide]
functional studies outcome by dose (Kmt2d+/βGeo mice): most improvement in functional studies
escape latency during training, Kmt2d+/βGeo vs Kmt2d+/+ both on drug (Kmt2d+/βGeo mice; FIG. 12B): No significant difference is observed
escape latency during training, Kmt2d+/βGeo animals with vs without drug (Kmt2d+/βGeo mice; FIG. 12D): No significant difference is observed
frequency of platform crossing during probe trial, Kmt2d+/βGeo mice (Kmt2d+/βGeo mice; FIG. 25F): normalized
escape latency during training, Kmt2d+/+ animals with vs without drug (Kmt2d+/βGeo mice; P<0.01, FIG. 12C): significant difference
platform crossing during probe trial, both Kmt2d+/+ and Kmt2d+/βGeo mice (Kmt2d+/βGeo mice; greater response in Kmt2d+/βGeo, FIG. 25F): improved performance
H3K4me3 in the GCL [1]: increased H3K4 trimethylation

— US11357748B2, “Methods for treating mendelian disorders of the epigenetic machinery” (THE JOHNS HOPKINS UNIVERSITY, priority 2014, dated 2022)
